Legend:
[1] = molecular target: T1, CbXI-2 MD (Chara braunii, UniProt A0A388M2Q8); test: actin-activated Mg2+-ATPase, phosphate release; format: biochemical; conditions: 2 mM ATP, F-actin 0.125-4 mg/mL, 25 mM KCl, 4 mM MgCl2, pH 7.4, 25 C
T1 construct: gene CBR_g48390; motor domain only, no IQ motifs; baculovirus / insect cells

[2] = molecular target: T2, CbXI-3 MD (Chara braunii, UniProt A0A388L5N7); test: actin-activated Mg2+-ATPase, phosphate release; format: biochemical; conditions: 2 mM ATP, F-actin 0.125-4 mg/mL, 25 mM KCl, 4 mM MgCl2, pH 7.4, 25 C
T2 construct: gene CBR_g24025; motor domain only, no IQ motifs; baculovirus / insect cells
T2 sequence (A0A388L5N7 1-740 limits assumed): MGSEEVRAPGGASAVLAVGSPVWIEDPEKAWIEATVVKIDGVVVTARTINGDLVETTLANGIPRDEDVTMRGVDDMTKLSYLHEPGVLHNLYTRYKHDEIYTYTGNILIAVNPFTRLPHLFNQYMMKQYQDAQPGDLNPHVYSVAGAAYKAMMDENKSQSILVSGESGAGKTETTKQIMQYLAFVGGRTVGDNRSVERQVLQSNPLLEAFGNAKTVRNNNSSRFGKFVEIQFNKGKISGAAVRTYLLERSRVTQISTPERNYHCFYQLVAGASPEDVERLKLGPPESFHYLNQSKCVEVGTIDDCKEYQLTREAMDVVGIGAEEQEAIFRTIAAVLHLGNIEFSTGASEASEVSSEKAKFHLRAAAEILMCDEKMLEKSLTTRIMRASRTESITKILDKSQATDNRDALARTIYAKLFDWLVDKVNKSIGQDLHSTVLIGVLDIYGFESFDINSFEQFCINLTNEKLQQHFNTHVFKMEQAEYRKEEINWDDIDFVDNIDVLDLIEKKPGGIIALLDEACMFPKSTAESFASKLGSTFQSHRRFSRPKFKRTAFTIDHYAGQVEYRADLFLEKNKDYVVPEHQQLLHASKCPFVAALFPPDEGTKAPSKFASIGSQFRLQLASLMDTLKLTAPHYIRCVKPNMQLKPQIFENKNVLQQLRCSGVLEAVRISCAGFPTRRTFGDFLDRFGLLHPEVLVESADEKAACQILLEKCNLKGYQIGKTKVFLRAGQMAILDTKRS

T1 sequence (A0A388M2Q8 1-744 limits assumed): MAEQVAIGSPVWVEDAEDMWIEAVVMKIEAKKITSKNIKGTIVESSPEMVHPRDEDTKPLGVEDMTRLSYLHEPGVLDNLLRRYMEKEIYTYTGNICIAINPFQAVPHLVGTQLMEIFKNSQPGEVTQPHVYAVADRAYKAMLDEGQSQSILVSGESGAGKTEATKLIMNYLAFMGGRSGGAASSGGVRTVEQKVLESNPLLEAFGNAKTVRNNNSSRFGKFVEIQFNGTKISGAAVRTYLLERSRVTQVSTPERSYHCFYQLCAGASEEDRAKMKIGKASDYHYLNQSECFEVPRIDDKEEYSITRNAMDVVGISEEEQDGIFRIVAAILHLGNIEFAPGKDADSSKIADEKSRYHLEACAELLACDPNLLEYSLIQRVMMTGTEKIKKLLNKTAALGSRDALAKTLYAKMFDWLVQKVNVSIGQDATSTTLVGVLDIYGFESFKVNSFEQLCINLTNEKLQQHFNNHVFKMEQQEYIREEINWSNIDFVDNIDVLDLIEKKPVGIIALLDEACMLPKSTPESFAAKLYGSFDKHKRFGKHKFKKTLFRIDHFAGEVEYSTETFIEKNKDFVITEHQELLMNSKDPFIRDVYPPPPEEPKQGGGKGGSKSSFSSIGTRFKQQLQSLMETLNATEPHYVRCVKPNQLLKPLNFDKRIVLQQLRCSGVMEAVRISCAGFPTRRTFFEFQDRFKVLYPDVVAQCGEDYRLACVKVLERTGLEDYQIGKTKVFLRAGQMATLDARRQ

Compound: Nc1ncnc2c1ncn2[C@@H]1O[C@H](COP(=O)(O)OP(=O)(O)OP(=O)(O)O)[C@@H](O)[C@H]1O [ATP]
- actin-activated Mg2+-ATPase, phosphate release [1]: The ATPase activities of CbXI-1, CbXI-2, CbXI-3, and CbXI-4 MDs were plotted
- actin-activated Mg2+-ATPase, phosphate release [2]: The ATPase activities of CbXI-1, CbXI-2, CbXI-3, and CbXI-4 MDs were plotted
